Assay results taken from patent publication US11560370B1, “5-membered heteroaryl carboxamide compounds for treatment of HBV” (Assembly Biosciences, Inc., priority 2018, dated 2023).

System: HBV
Test: Viral production from HepAD38 cells, viral load by qPCR of HBV core sequence
Assay type: cell-based
Details: 5 days, supernatant HBV DNA by qPCR, read-out: Viral Load EC50 Activity range
In short: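 HepAD38 cells in tetracycline-free medium with 2% FBS, 50,000 cells/well, treated 5 days at 37° C. with compound from 10 μM top concentration (1% DMSO final). Supernatant HBV DNA measured by TaqMan qPCR of core sequence against standards, versus DMSO wells; viability by CellTiter-Glo; EC50/CC50 by four-parameter fit.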

SMILES	EC50
Cn1nc(C2CC3CC(C#N)CC3C2)c(C(=O)Nc2ccc(F)c(Cl)c2)c1N (stereo not shown) [AIA-027]	< 100 nM
CSC1CC2CC(c3nn(C)c(N)c3C(=O)Nc3ccc(F)c(Cl)c3)CC2C1 (stereo not shown) [AIA-028]	< 100 nM
Cn1nc(C2CC3CC(S(C)(=O)=O)CC3C2)c(C(=O)Nc2ccc(F)c(Cl)c2)c1N (stereo not shown) [AIA-030]	< 100 nM
Cn1nc([C@@H]2CC3C/C(=N/O)C[C@@H]3C2)c(C(=O)Nc2ccc(F)c(Cl)c2)c1N (stereo partly shown) [AIA-032-A]	< 100 nM
Cn1nc([C@H]2CC3C/C(=N/O)C[C@@H]3C2)c(C(=O)Nc2ccc(F)c(Cl)c2)c1N (stereo partly shown) [AIA-032-B]	< 100 nM
Cn1nc(C2CC3CNC(=O)CC3C2)c(C(=O)Nc2ccc(F)c(Cl)c2)c1N (stereo not shown) [AIA-033]	< 100 nM
Cn1nc(C2CC3CC(NS(C)(=O)=O)CC3C2)c(C(=O)Nc2ccc(F)c(Cl)c2)c1N (stereo not shown) [AIA-042]	< 100 nM
CN(C1CC2CC(c3nn(C)c(N)c3C(=O)Nc3ccc(F)c(Cl)c3)CC2C1)S(C)(=O)=O (stereo not shown) [AIA-043]	< 100 nM
Cn1nc(C2CC3CC(N4CCCS4(=O)=O)CC3C2)c(C(=O)Nc2ccc(F)c(Cl)c2)c1N (stereo not shown) [AIA-044]	< 100 nM
Cn1nc(C2CC3CC(N4CCOC4=O)CC3C2)c(C(=O)Nc2ccc(F)c(Cl)c2)c1N (stereo not shown) [AIA-046]	< 100 nM
Cn1nc(C2CC3CC(N4CCNC4=O)CC3C2)c(C(=O)Nc2ccc(F)c(Cl)c2)c1N (stereo not shown) [AIA-047]	< 100 nM
Cn1cc(C2CC3CC(c4nn(C)c(N)c4C(=O)Nc4ccc(F)c(Cl)c4)CC3C2)cn1 (stereo not shown) [AIA-049]	< 100 nM
Cn1nc(C2CC3CSCC3C2)c(C(=O)Nc2ccc(F)c(Cl)c2)c1N (stereo not shown) [AIA-055]	< 100 nM
Cn1nc(C2CC3CC(N)CC3C2)c(C(=O)Nc2ccc(F)c(Cl)c2)c1N (stereo not shown) [AIA-073]	100 to 500 nM
Cn1nc(C2CC3CC([S+](C)[O-])CC3C2)c(C(=O)Nc2ccc(F)c(Cl)c2)c1N (stereo not shown) [AIA-074]	< 100 nM
Cn1nc(C2CC3CC(NS(=O)(=O)C(F)(F)F)CC3C2)c(C(=O)Nc2ccc(F)c(Cl)c2)c1N (stereo not shown) [AIA-086]	< 100 nM
CNC1CC2CC(c3nn(C)c(N)c3C(=O)Nc3ccc(F)c(Cl)c3)CC2C1 (stereo not shown) [AIA-102]	100 to 500 nM
Cn1nc([C@@H]2CC3CC(O)(CS(C)(=O)=O)C[C@@H]3C2)c(C(=O)Nc2ccc(F)c(Cl)c2)c1N (stereo partly shown) [AIA-227-1, 5-Amino-N-(3-chloro-4-fluorophenyl)-3-((2r,5r)-5-hydroxy-5-(methylsulfonylmethyl)octahydropentalen-2-yl)-1-methyl-1H-pyrazole-4-carboxamide]	< 100 nM
Cn1nc(C2CC3CCCC3C2)c(C(=O)Nc2ccc(F)c(Cl)c2)c1N (stereo not shown) [AIA-232]	< 100 nM
Cn1nc(C2CC3CC(O)(CC(=O)O)CC3C2)c(C(=O)Nc2ccc(F)c(Cl)c2)c1N (stereo not shown) [AIA-241]	< 100 nM

Same assay, conditions: Hepatitis B virus, HePAD38, 120 h, 5 days, supernatant HBV DNA by qPCR, read-out: Viral Load EC50 Activity range

SMILES	EC50
COC(=O)N1CC2CC(c3nn(C)c(N)c3C(=O)Nc3ccc(F)c(Cl)c3)CC2C1 (stereo not shown) [AIA-022]	< 100 nM
CNC(=O)N1CC2CC(c3nn(C)c(N)c3C(=O)Nc3ccc(F)c(Cl)c3)CC2C1 (stereo not shown) [AIA-023, 5-(5-Amino-4-(3-chloro-4-fluorophenylcarbamoyl)-1-methyl-1H-pyrazol-3-yl)-N-methylhexahydrocyclopenta[c]pyrrole-2(1H)-carboxamide]	< 100 nM
Cn1nc(C2CC3CN(S(C)(=O)=O)CC3C2)c(C(=O)Nc2ccc(F)c(Cl)c2)c1N (stereo not shown) [AIA-024, 5-Amino-N-(3-chloro-4-fluorophenyl)-1-methyl-3-(2-(methylsulfonyl)octa hydrocyclopenta[c]pyrrol-5-yl)-1H-pyrazole-4-carboxamide]	< 100 nM
Cn1nc(C2CC3CN(C(=O)N4CCCC4)CC3C2)c(C(=O)Nc2ccc(F)c(Cl)c2)c1N (stereo not shown) [AIA-025, 5-Amino-N-(3-chloro-4-fluorophenyl)-1-methyl-3-(2-(pyrrolidine-1-carbonyl)octahydrocyclopenta[c]pyrrol-5-yl)-1H-pyrazole-4-carboxamide]	< 100 nM
CCSC1CC2CC(c3nn(C)c(N)c3C(=O)Nc3ccc(F)c(Cl)c3)CC2C1 (stereo not shown) [AIA-029, 5-Amino-N-(3-chloro-4-fluorophenyl)-3-(5-(ethylthio)octahydropentalen-2-yl)-1-methyl-1H-pyrazole-4-carboxamide]	< 100 nM
CCS(=O)(=O)C1CC2CC(c3nn(C)c(N)c3C(=O)Nc3ccc(F)c(Cl)c3)CC2C1 (stereo not shown) [AIA-031, 5-Amino-N-(3-chloro-4-fluorophenyl)-3-(5-(ethylsulfonyl)octahydropentalen-2-yl)-1-methyl-1H-pyrazole-4-carboxamide]	< 100 nM
Cn1nc(C2CC3CC(N4CCCC4)CC3C2)c(C(=O)Nc2ccc(F)c(Cl)c2)c1N (stereo not drawn) [AIA-040, 5-Amino-N-(3-chloro-4-fluorophenyl)-1-methyl-3-(5-(pyrrolidin-l-yl)octahydropentalen-2-yl)-1H-pyrazole-4-carboxamide]	< 100 nM
Cn1nc(C2CC3CC(N4CCOCC4)CC3C2)c(C(=O)Nc2ccc(F)c(Cl)c2)c1N (stereo not shown) [AIA-041, 5-Amino-N-(3-chloro-4-fluorophenyl)-1-methyl-3-(5-morpholinooctahydropentalen-2-yl)-1H-pyrazole-4-carboxamide]	< 100 nM
Cn1nc(C2CC3CC(n4cccn4)CC3C2)c(C(=O)Nc2ccc(F)c(Cl)c2)c1N (stereo not shown) [AIA-048, 3-(5-(1H-Pyrazol-1-yl)octahydropentalen-2-yl)-5-amino-N-(3-chloro-4-fluorophenyl)-1-methyl-1H-pyrazole-4-carboxamide]	< 100 nM
Cn1cc(-c2ccc([C@H]3CC[C@@H](c4nn(C)c(N)c4C(=O)Nc4ccc(F)c(Cl)c4)C3)cc2)cn1 [AIA-050-A, 5-Amino-N-(3-chloro-4-fluorophenyl)-1-methyl-3-((1R,3S)-3-(4-(1-methyl-1H-pyrazol-4-yl)phenyl)cyclopentyl)-1H-pyrazole-4-carboxamide]	< 100 nM
Cn1cc(-c2ccc([C@H]3CC[C@H](c4nn(C)c(N)c4C(=O)Nc4ccc(F)c(Cl)c4)C3)cc2)cn1 [AIA-050-B, 5-amino-N-(3-chloro-4-fluorophenyl)-1-methyl-3-((1S,3S)-3-(4-(1-methyl-1H-pyrazol-4-yl)phenyl)cyclopentyl)-1H-pyrazole-4-carboxamide]	< 100 nM
CN1CC2CC(c3nn(C)c(N)c3C(=O)Nc3ccc(F)c(Cl)c3)CC2C1 (stereo not shown) [AIA-052, 5-Amino-N-(3-chloro-4-fluorophenyl)-1-methyl-3-(2-methyloctahydrocyclopenta [c]pyrrol-5-yl)-1H-pyrazole-4-carboxamide]	500 to 10000 nM
CC(C)N1CC2CC(c3nn(C)c(N)c3C(=O)Nc3ccc(F)c(Cl)c3)CC2C1 (stereo not shown) [AIA-053, 5-Amino-N-(3-chloro-4-fluorophenyl)-3-(2-isopropyloctahydrocyclopenta[c]pyrrol-5-yl)-1-methyl-1H-pyrazole-4-carboxamide]	500 to 10000 nM
CC(N1CC2CC(c3nn(C)c(N)c3C(=O)Nc3ccc(F)c(Cl)c3)CC2C1)C(F)(F)F (stereo not shown) [AIA-054, 5-Amino-N-(3-chloro-4-fluorophenyl)-1-methyl-3-(2-(1,1,1-trifluoropropan-2-yl)octahydrocyclopenta[c]pyrrol-5-yl)-1H-pyrazole-4-carboxamide]	< 100 nM
Cn1nc(C2CC3CC(OC(C)(C)C)CC3C2)c(C(=O)Nc2ccc(F)c(Cl)c2)c1N (stereo not shown) [AIA-058, 5-Amino-3-(5-(tert-butoxy)octahydropentalen-2-yl)-N-(3-chloro-4-fluorophenyl)-1-methyl-1H-pyrazole-4-carboxamide]	< 100 nM
CC[S+]([O-])C1CC2CC(c3nn(C)c(N)c3C(=O)Nc3ccc(F)c(Cl)c3)CC2C1 (stereo not shown) [AIA-075, 5-Amino-N-(3-chloro-4-fluorophenyl)-3-(5-(ethylsulfinyl)octahydropentalen-2-yl)-1-methyl-1H-pyrazole-4-carboxamide]	< 100 nM
Cn1nc(C2CC3CC(O)(C4CC4)CC3C2)c(C(=O)Nc2ccc(F)c(Cl)c2)c1N (stereo not shown) [AIA-077, 5-Amino-N-(3-chloro-4-fluorophenyl)-3-(5-cyclopropyl-5-hydroxyoctahydropentalen-2-yl)-1-methyl-1H-pyrazole-4-carboxamide]	< 100 nM
CC(C)S(=O)(=O)N1CC2CC(c3nn(C)c(N)c3C(=O)Nc3ccc(F)c(Cl)c3)CC2C1 (stereo not shown) [AIA-085, 5-Amino-N-(3-chloro-4-fluorophenyl)-3-(2-(isopropylsulfonyl)octahydrocyclopentyl[c]pyrrol-5-yl)-1-methyl-1H-pyrazole-4-carboxamide]	< 100 nM
Cn1nc(C2CC3CC(OCC(F)(F)F)CC3C2)c(C(=O)Nc2ccc(F)c(Cl)c2)c1N (stereo not shown) [AIA-101, 5-Amino-N-(3-chloro-4-fluorophenyl)-1-methyl-3-(5-(2,2,2-trifluoroethoxy)octahydropentalen-2-yl)-1H-pyrazole-4-carboxamide]	< 100 nM
Cn1nc(C2CC3CC(NCCO)CC3C2)c(C(=O)Nc2ccc(F)c(Cl)c2)c1N (stereo not shown) [AIA-103, 5-Amino-N-(3-chloro-4-fluorophenyl)-3-(5-((2-hydroxyethyl)amino)octahydropentalen-2-yl)-1-methyl-1H-pyrazole-4-carboxamide]	100 to 500 nM
Cn1nc([C@H]2CC3C[C@](O)(CS(C)(=O)=O)CC3C2)c(C(=O)Nc2ccc(F)c(Cl)c2)c1N (stereo partly shown) [AIA-227-2, 5-Amino-N-(3-chloro-4-fluorophenyl)-3-((2s,5s)-5-hydroxy-5-(methylsulfonylmethyl)octahydropentalen-2-yl)-1-methyl-1H-pyrazole-4-carboxamide]	< 100 nM
Cn1nc(C2CC3CC(N4CCNC(=O)C4)CC3C2)c(C(=O)Nc2ccc(F)c(C#N)c2)c1N (stereo not drawn) [AIA-246, 5-Amino-N-(3-cyano-4-fluorophenyl)-1-methyl-3-(5-(3-oxopiperazin-l-yl)octahydropentalen-2-yl)-1H-pyrazole-4-carboxamide]	< 100 nM
Cn1nc(C2CC3CC(O)(CS(=O)(=O)C4CC4)CC3C2)c(C(=O)Nc2ccc(F)c(Cl)c2)c1N (stereo not shown) [AIA-252-1, 5-Amino-N-(3-chloro-4-fluorophenyl)-3-(5-((cyclopropylsulfonyl)methyl)-5-hydroxyortahydropentalen-2-yl)-1-methyl-1H-pyrazole-4-carboxamide]	< 100 nM
